# Legend:
# [1] = test system: plasma cholinesterase; test: Plasma cholinesterase inhibition by naled, DDVP and metrifonate; assay type: biochemical
# Excerpt: Unlike metrifonate, which acts as a slow release formulation, naled degrades rapidly in vivo to the metabolite DDVP. […] The slightly lower values in inhibition observed for naled than that of DDVP can be attributed to its higher molecular weight. […] All the cholinesterase inhibition activity of naled is a result of the formation of DDVP.
# [2] = Side effects of cholinesterase inhibitors in rats; set-up: animals with facial clonus / animals with sedation: dose or concentration left out as unconfirmed
# [3] = test system: 3H-choline accumulation and K+ evoked acetylcholine release; test: 3H-choline accumulation and K+ evoked acetylcholine release in vitro; settings: concentration giving 100% inhibition of cholinesterase in vitro; after each of two doses
# [4] = test system: Alzheimer patients; settings: i.v. administration; cited from earlier work
# [5] = test system: acetylcholine; settings: cortex, striatum, hippocampus and midbrain; cited from earlier work
# [6] = test system: brain cholinesterase; settings: cited from earlier work
# [7] = test system: cholinesterase; settings: when normal acetylcholine levels are regained (within 24 hours) after acute administration; cited from earlier work
# [8] = test system: acetylcholine; settings: acute administration, all brain regions; cited from earlier work
# [9] = with loss of enzymatic inhibitory activity; cited from earlier work
# [10] = test system: acetylcholine; test: Acetylcholine levels in rat brain regions after intracerebroventricular metrifonate; assay type: in vivo; settings: 2.5 mg intracerebroventricularly
# Protocol: (§1) Levels of acetylcholine increased by 45% at 45 min. then returned to normal by 120 min. When metrifonate (2.5 mg) was given intracerebroventricularly the activity of cholinesterase decreased in the injected side at 30 min. to 20% in hippocampus, 22% in the medulla, 50% in the cerebellum, 58% in the striatum and 72% in the cortex.
# [11] = test system: brain cholinesterase; test: Cholinesterase activity in rat after intramuscular inhibitor; assay type: in vivo; settings: for activity of cholinesterase: 80 mg/Kg intramuscular
# [12] = Side effects in Alzheimer's disease patients on metrifonate; assay type: in vivo
# Protocol: (§2) Patients were tested using the Alzheimer's Disease Assessment Scale (ADAS) (Rosen et al 1984), Mini Mental State Examination (Folstein et al 1975), a Clincial Global Assessment Scale (Guy 1973) and a rating scale for side effects. A laboratory battery to assess hematopoietic, hepatic, urinary and cardiac status, physical examination, vital signs and measurement of blood cholinesterase activities were completed. Patients were then given in a single oral dose under open conditions metrifonate 2.5 mg/Kg and 5 mg/Kg on successive weeks and reassessed 1, 4 and 7 days after the 2.5 mg/Kg dose and 4 and 7 days after the 5 mg/Kg dose. Patients were next administered metrifonate one month later after a second baseline assessment (blood cholinesterase have returned to initial values by 1 month) and were given on four successive weeks 7.5 mg/Kg, 7.5 mg/Kg, 15 mg/Kg and 15 mg/Kg and assessed 7 days after each dosing prior to administration of the next dose. At each assessment all the cognitive and medical studies at baseline were repeated.
# (§3) In sum we have successfully administered metrifonate to 15 patients (4-16 weeks of once weekly drug) without the appearance of side effects except for nausea and vomiting in four patients that has not reoccurred following administration of the highest dose as a divided dose over two days. […]
# [13] = in vivo; cited from earlier work
# [14] = test system: acetylcholinesterase; settings: cited from earlier work
# [15] = test system: plasma acetycholinesterase; settings: in vivo; cited from earlier work
# [16] = test system: brain acetylcholinesterase; settings: 125 mg/kg intraperitoneal, within 15 minutes; cited from earlier work
# [17] = test system: acetylcholine; test: Acetylcholine levels in rat brain after one or two consecutive administrations; assay type: in vivo
# Excerpt: The second administration of the drugs was timed so as to allow acetylcholine levels to return to approximately (+12%) control levels and the concentration of the drug was the highest that would allow 100% survival.
# [18] = test system: acetylcholine; settings: 125 mg/kg intraperitoneal, simultaneous with inhibition; cited from earlier work
# [19] = test system: cholinesterase; test: Cholinesterase activity in rat brain regions after intracerebroventricular metrifonate; assay type: in vivo; settings: 2.5 mg intracerebroventricularly, injected side, 30 min
# Protocol: as §1
# [20] = test system: cholinesterase and acetylcholinesterase in blood; test: Blood cholinesterase activities in Alzheimer's disease patients on metrifonate; assay type: in vivo; settings: 15 patients, 4-16 weeks of once weekly drug
# Protocol: as §2, §3
# [21] = test system: Alzheimer's disease patients; test: Open metrifonate study in Alzheimer's disease patients, ADAS; assay type: in vivo
# Protocol: We have administered metrifonate to 15 Alzheimer's disease patients. Patients were diagnosed using Diagnostic Statistical Manual IIIR criteria. […] Patients with moderately severe Alzheimer's disease were accepted to explore for effects of severity on drug response.
# as §2
# To identify responders we used the criterion of an improvement of 4 points on the ADAS. Among 5 patients who have received all four dosage levels we have identified 5 as responders, among 10 patients who have received both the 2.5 and 5 mg/Kg doses we have identified 5 responders for a total of 10 responders identified. […] The longest term patients (n=5) were on metrifonate for a total of four months.
# In the completed patients the preferred dose, defined as maximum improvement without interfering side effects, was identified. Best doses ranged from 2.5 to 7.5 mg/Kg. Lower doses of about 0.5 mg/Kg were also operable.
# [22] = physostigmine i.m., tetrahydroaminoacridine 15 mg/Kg
# [23] = tetrahydroaminoacridine 15 mg/Kg
smiles,measurement,setting,value
"COP(=O)(OC)OC(Br)C(Cl)(Cl)Br (stereo not drawn) [naled, 1,2-dibromo-2,2-dichlorvoethyl dimethyl phosphate]",plasma cholinesterase inhibition compared with DDVP,[1],parallel to that by DDVP
same,inherent cholinesterase inhibition activity,[1]; conclusion from comparison with DDVP,without inherent cholinesterase inhibition activity of its own
Nc1c2c(nc3ccccc13)CCCC2 [tetrahydroaminoacridine],animals with fasciculations,[2]; [22],25%
same,animals with tremor,[2]; [22],25%
same,animals with facial and forelimb clonus,[2]; [23],10%
same,animals with generalized seizures,[2]; [23],4%
same,animals with increased salivation,[2]; [23],60%
same,animals with lacrimation,[2]; [23],40%
same,animals with pronounced splay,[2]; [23],35%
same,interval between generalized seizures,[2]; [23],5 to 10 min
CNC(=O)Oc1ccc2c(c1)[C@]1(C)CCN(C)[C@@H]1N2C [physostigmine],3H acetylcholine release,[3],significantly more
same,animals with splay of hind limbs,[2]; physostigmine 300 mg/Kg i.m.,25%
same,animals with facial clonus,[2]; physostigmine i.m.,15%
same,animals with sedation,[2]; physostigmine i.m.,10%
same,animals with fasciculations,[2]; [22],60%
same,animals with tremor,[2]; [22],30%
same,studies that have shown improvement in memory,[4],6 out of 9
"COP(=O)(OC)OC=C(Cl)Cl [DDVP, 2,2 dichlorovinyl dimethyl phosphate]",time to peak accumulation of acetylcholine,[5],≤ 5 min
same,time to become active as inhibitor of brain cholinesterase,[6]; in vivo,one
same,inhibition of brain cholinesterase,[6]; maximal (up to),up to 96%
same,cholinesterase still inhibited,[7],35%
same,time to regain normal acetylcholine levels,[8],≤ 24 h
same,inactivation by oxidative metabolism,[9],rapidly inactivated
COP(=O)(OC)C(O)C(Cl)(Cl)Cl (stereo not drawn) [metrifonate],"maximal level of acetylcholine, hippocampus and cortex",[10]; 45 min,160 % of baseline
same,"peak level of acetylcholine, striatum",[10]; 60 min,155 % of baseline
same,activity of cholinesterase,[11]; 30 min,26%
same,activity of cholinesterase,[11]; 180 min,50%
same,activity of cholinesterase,[11]; 360 min,74%
same,peak cholinesterase inhibition,[11]; at the doses used,85%
same,time of peak cholinesterase inhibition,[11]; at the doses used,30 min
same,patients with nausea and vomiting,"[12]; 15 patients, 4-16 weeks of once weekly drug",four
same,"adverse, side or toxic effects","[12]; up to 15 mg/Kg body weight/week, except occasional nausea and vomiting",have not occurred
same,absorption in humans,[13],rapidly absorbed
same,tolerance in humans,[13],relatively few side effects
same,activity of the precursor itself against acetylcholinesterase,[14],not active
same,increase necessary to obtain the same amount of plasma cholinesterase inhibition,[1]; relative to naled/DDVP,10 fold
same,half life of cholinesterase inhibition,[15],120 to 140 h
same,seizures,[2]; metrifonate 80 mg/Kg 1M,did not occur
same,survival,[2]; metrifonate 80 mg/Kg 1M,all animals survived
same,time at which symptoms developed after the injection,[2]; metrifonate 80 mg/Kg 1M,20 to 35 min
same,side effects compared with the other two drugs,[2]; metrifonate 80 mg/Kg 1M vs physostigmine and tetrahydroaminoacridine,less frequent and less severe
same,inhibition of brain acetylcholinesterase,[16],70%
same,time of return of acetylcholine to normal,[17]; 80 mg/Kg intramuscular,≤ 120 min
same,increase in levels of acetylcholine,"[17]; 80 mg/Kg intramuscular, 45 min",45%
same,time at which acetylcholine returned practically to control levels,[17]; first administration,90 min
same,time at which the peak value of acetylcholine was reached,[17]; first administration,45 min
same,increase in acetylcholine levels after the first administration,"[17]; rat brain, first of two consecutive administrations",45%
same,duration of the acetylcholine increase after the second administration,[17]; second consecutive administration,120 min
same,increase in acetylcholine after the second administration,"[17]; second consecutive administration, highest dose allowing 100% survival",33%
same,change in acetylcholine,[18],increase
same,"activity of cholinesterase, cerebellum",[19],50%
same,"activity of cholinesterase, cortex",[19],72%
same,"activity of cholinesterase, hippocampus",[19],20%
same,"activity of cholinesterase, medulla",[19],22%
same,"activity of cholinesterase, striatum",[19],58%
same,inhibition of cholinesterase and acetylcholinesterase in blood,[20],up to 80%
same,effect of the highest dose on cognitive performance,[21]; 15 mg/KG,deterioration in cognitive performance
same,clinical effect of once weekly dosing,"[21]; 0.5 to 15 mg/Kg body weight/week, significant number of Alzheimer's disease patients","improvement in memory, cognition and other behaviors"
same,total of responders identified,[21]; 15 patients,10
same,effect of lower doses,[21]; about 0.5 mg/Kg,operable
same,change on the ADAS in responders,[21]; all responders,≥ 9
same,responders (improvement of 4 points on the ADAS),[21]; among 5 patients who received all four dosage levels,5
same,responders (improvement of 4 points on the ADAS),[21]; among 10 patients who received both the 2.5 and 5 mg/Kg doses,5

# Source: patent US4950658A, “Method of medical treatment of Alzheimer's disease” (priority 1988, dated 1990)
